In brackets after ≈: the same amount, converted by molar mass. Read-outs that look alike come from different tables or passages of the source. Square brackets hold non-standard residues; d marks the D form. Peptide text beside a SMILES is read from it. Bip(4'-Cl) = N[C@@H](Cc1ccc(-c2ccc(Cl)cc2)cc1)C(=O)O; dBip(4'-Cl) = N[C@H](Cc1ccc(-c2ccc(Cl)cc2)cc1)C(=O)O
Experiments:
Assay in all cases: microbe, parasite or virus in culture
Format in all cases: cell-based, Staphylococcus aureus
[1] = test system: Mupirocin-susceptible MRSA ATCC-BAA-2762 (EMRSA15, ST22); conditions: ATCC-BAA-2762; read-out: MIC
Procedure: (§1) The MICs of test compounds were determined using the microdilution method from the Clinical and Laboratory Standards Institute (CLSI) guidelines (Clinical and Laboratory Standards Institute. Methods for dilution antimicrobial susceptibility tests for bacteria that grow aerobically; approved standard—ninth edition. Document M07-A9. Vol. 32 No. 2. Wayne, Pa.: CLSI; 2012). Briefly, bacteria were grown fresh from frozen stock in Mueller Hinton 2 (MH2) agar at 37° C. After an overnight incubation, 5 bacteria colonies were selected to grow in cation-adjusted MH2 broth in a shaking incubator (140 RPM) at 37° C. Cells were grown to an optical density (OD600) of 0.15-0.16 determined using a spectrophotometer (Molecular Devices Spectra Max Plus), which corresponds to ˜1×10^8 CFU/mL. Test compounds were constituted into 4 mM DMSO stock solutions and then subjected to 2-fold serial dilution in a 96-well plate with concentrations ranging from 100 to 0.195 μM in duplicates. […] of microbial culture containing ˜1×10^6 CFU/mL of microbes in the respective broths was introduced into each well containing 50 μL of compound solution. After an overnight incubation at 35° C., (220 RPM), OD600 measurements were conducted using the microplate spectrophotometer. The MIC was defined as the lowest antibiotic or compound concentration (μM) required to inhibit bacteria growth.
(§2) The 11th well was used as the growth control well (medium with bacterial inoculums, no antibacterial) while the 12th well was the sterility control well (medium only).

[2] = test system: Mupirocin-susceptible MRSA ATCC-BAA-1707 (USA400); conditions: ATCC-BAA-1707; read-out: MIC
Procedure: as §1, §2

[3] = test system: Mupirocin-resistant MRSA ATCC-BAA-1556; conditions: for MIC: read-out: MIC
Procedure: as §1, §2

[4] = test system: Mupirocin-susceptible MRSA ATCC-BAA-1756 (USA300); conditions: ATCC-BAA-1756; read-out: MIC
Procedure: as §1, §2

[5] = test system: Mupirocin-resistant MRSA ATCC-BAA-1750 (USA200); conditions: ATCC-BAA-1750; read-out: MIC
Procedure: as §1, §2

[6] = test system: Mupirocin-susceptible MRSA ATCC-700699 (VISA); conditions: read-out: MIC
Procedure: as §1, §2

[7] = test system: Mupirocin-resistant MRSA ATCC-BAA-1708; conditions: ATCC-BAA-1708; read-out: MIC
Procedure: as §1, §2

[8] = test system: Mupirocin-susceptible MRSA ATCC-BAA-1754 (ST45); conditions: ATCC-BAA-1754; read-out: MIC
Procedure: as §1, §2

[9] = test system: Mupirocin-susceptible MRSA ATCC-33592 (ST239); conditions: ATCC-33592; read-out: MIC
Procedure: as §1, §2

[10] = test system: Mupirocin-susceptible MRSA ATCC-BAA-1681 (USA100); conditions: ATCC-BAA-1681; read-out: MIC
Procedure: as §1, §2

[11] = Mupirocin-resistant MRSA ATCC-BAA-1556, cation-adjusted MH2 broth, overnight 35° C., OD600

Compound: N=C(N)NCCCCNC(=O)[C@@H](Cc1ccc(-c2ccccc2)cc1)NC(=O)[C@@H](CCCNC(=N)N)NC(=O)[C@H](N)Cc1ccc(-c2ccccc2)cc1 [Compound 2]
- MIC [1]: 6.25 µM (≈ 4.58 µg/mL)
- MIC [2]: 6.25 µM (≈ 4.58 µg/mL)
- MIC [3, 11]: 12.5 µM (≈ 9.16 µg/mL)
- MIC [4]: 6.25 µM (≈ 4.58 µg/mL)
- MIC [5]: 6.25 µM (≈ 4.58 µg/mL)
- MIC ([6]; Mupirocin-susceptible MRSA ATCC-700699 (VISA)): 6.25 µM (≈ 4.58 µg/mL)
- MIC [7]: 6.25 µM (≈ 4.58 µg/mL)
- MIC [8]: 6.25 µM (≈ 4.58 µg/mL)
- MIC [9]: 6.25 µM (≈ 4.58 µg/mL)
- MIC [10]: 6.25 µM (≈ 4.58 µg/mL)

Compound: N=C(N)NCCC[C@H](NC(=O)[C@H](Cc1ccc(-c2ccc(Cl)cc2)cc1)NC(=O)[C@H](CCCNC(=N)N)NC(=O)[C@@H](N)Cc1ccc(-c2ccc(Cl)cc2)cc1)C(N)=O [Compound 33] (H-[Bip(4'-Cl)]R[Bip(4'-Cl)]R-NH2)
- MIC [1]: 3.125 µM (≈ 2.64 µg/mL)
- MIC [2]: 3.125 µM (≈ 2.64 µg/mL)
- MIC [3, 11]: 3.125 µM (≈ 2.64 µg/mL)
- improvement of bioactivity (lower MIC values) as compared to Compound 2 ([3]; against Mupirocin-resistant MRSA strains): about 4 fold
- MIC [4]: 3.125 µM (≈ 2.64 µg/mL)
- MIC [5]: 1.56 µM (≈ 1.32 µg/mL)
- MIC ([6]; ATCC-700699): 3.125 µM (≈ 2.64 µg/mL)
- MIC [7]: 1.56 µM (≈ 1.32 µg/mL)
- MIC [8]: 3.125 µM (≈ 2.64 µg/mL)
- MIC [9]: 3.125 µM (≈ 2.64 µg/mL)
- MIC [10]: 3.125 µM (≈ 2.64 µg/mL)

Compound: N=C(N)NCCC[C@H](NC(=O)[C@H](Cc1ccc(-c2ccc(Cl)cc2)cc1)NC(=O)[C@H](CCCNC(=N)N)NC(=O)[C@H](N)Cc1ccc(-c2ccc(Cl)cc2)cc1)C(N)=O [Compound 42] (H-[dBip(4'-Cl)]R[Bip(4'-Cl)]R-NH2)
- MIC ([3]; ATCC-BAA-1556): 6.25 µM (≈ 5.28 µg/mL)

Compound: N=C(N)NCCC[C@H](NC(=O)[C@H](Cc1ccc(-c2ccc(Cl)cc2)cc1)NC(=O)[C@@H](CCCNC(=N)N)NC(=O)[C@@H](N)Cc1ccc(-c2ccc(Cl)cc2)cc1)C(N)=O [Compound 43] (H-[Bip(4'-Cl)][dR][Bip(4'-Cl)]R-NH2)
- MIC ([3]; ATCC-BAA-1556): 6.25 µM (≈ 5.28 µg/mL)

Reference: US20200157144A1, “ANTIMICROBIAL PEPTIDOMIMETICS” (priority 2017, published 2020)
